{"source": "patent US8940310B2", "about": "“Methods of treatment using TLR7 and/or TLR9 inhibitors” (Dynavax Technologies Corporation, priority 2010, dated 2015)", "test_system": "TLR7 and TLR9", "assay": "Tape stripping skin lesions in lupus prone (NZBxNZW)F1 mice", "format": "in vivo", "parameters": "key to Dermal inflammation: graded on a scale of 1 to 3", "details": "for Dermal inflammation / Epidermis thickness / Intraepithelial inflammation / Panniculum inflammation / Ulceration: histological score", "description": "SEQ ID NO:42 (IRS) was used starting the day of the tape stripping during the entire course of the experiments (FIGS. 29A,D,E) or starting at 4 days post injury when the disease is already established (FIGS. 30A,D,E). In both cases SEQ ID NO:42 (IRS) (100 μg; s. c.) was administered twice a week. Also described is the timing of PDC depletion experiments described in FIGS. 29A,F,G. Depleting antibody to PDC anti-120G8 (250 μg; i.p.) were given at day −2 and day 0, eight hours before tape stripping and then given twice a week for the entire duration of the experiment. Experiments were stopped in between 15-23 days after initial tape stripping depending on the progression of the lesions in the untreated groups.\nC57BL/6 and 129 mice were purchased from Charles River Laboratories. (NZBxNZW)F1 female mice were purchased from Jackson Laboratories and used at 18-22 weeks of age. MyD88/KO and TLR9/KO mouse colonies were maintained at Simonsen Laboratories and used with age matched C57BL/6 wild type controls at 8-12 weeks of age. Tape stripping was performed after shaving the dorsal area (3×3 cm) using 10 strokes with duct tape. IRS was administered just before tape stripping SC at a distant site. Alternatively, in (NZBxNZW)F1 mice, IRS was administered long term. In certain experiments PDC and neutrophils were depleted with 250 μg of antibody given IP at day −2 and day 0, eight hours before tape stripping. Anti-120G8 (Imgenex) was used for depletion of PDC (Asselin-Paturel et al., 2003), and anti-GR1-LY6G (clone 1A8; Biolegend) was used for depletion of neutrophils (Daley et al., 2008). […] In experiments where PDC were depleted, long term 120G8 depleting antibody was administered. Experiments in (NZBxNZW)F1 were terminated between 15-23 days after initial tape stripping, depending on the progression of the lesions in the untreated groups in each experiment. Percentage of area with open lesions in (NZBxNZW)F1 and normal mice was evaluated with Nikon software NIS-elements.\nThe biopsy specimens were fixed in formalin and embedded in paraffin. Sections were stained with hematoxylin-eosin. Multiple skin sections of 12-30 mice per group were evaluated in a blinded fashion. The following histological features were assessed and graded on a scale of 1 to 3: i) epidermis thickness ii) degree of ulceration iii) intraepithelial inflammation, iv) dermal inflammation, and v) panniculum inflammation. Histological grading was assigned as follows: 0, normal skin architecture, few dermal leukocytes and regular adnexa; 1, mild inflammation, slight epidermal hyperplasia and signs of dermal fibroblast proliferation; 2, moderate inflammation, noticeable epidermal hyperplasia (two- to four-fold increase in epithelial thickness) with hyperkeratosis, significant leukocyte/neutrophil-granulocyte dermal infiltrate with few macrophages, moderate fibrosclerosis of the dermis, reduction in the number of adnexa, slight degenerative changes of the hypodermic adipose tissue; 3, severe inflammation, marked epidermal hyperplasia (>four-fold increase in epithelial thickness) with hyperkeratosis, formation of keratin-filled craters and cysts, diffuse discontinuity of the epidermal layer (ulceration), extensive dermal infiltrate with abundant neutrophils and macrophages, pronounced dermal fibrosclerosis, vanishing of adnexa and evident degenerative changes of the hypodermic adipose tissue. The different parameters were scored separately and summed to obtained a total disease score (Table 22-1). Statistical significance among groups was calculated with a Mann-Whitney U-test.", "note": "Entries after “also recorded” stand apart in the source; their conditions may differ.", "data": [{"substance": "5′-TGCTCCTGGAGGGGTTGT-3′ (DNA, backbone not given here) [SEQ ID NO:42]", "values": [{"measurement": "induction of IFN-regulated and pro-inflammatory genes", "setting": "(NZBxNZW)F1, single injection prior to tape stripping, 24 hr", "result": "efficiently inhibited this gene induction; also recorded: can be inhibited"}, {"measurement": "Total Disease Score", "setting": "IRS (pre-injury)", "result": "3.2 ± 0.5"}, {"measurement": "Dermal inflammation", "setting": "IRS (pre-injury)", "result": "1.3 ± 0.2"}, {"measurement": "Epidermis thickness", "setting": "IRS (pre-injury)", "result": "0.7 ± 0.2"}, {"measurement": "Intraepithelial inflammation", "setting": "IRS (pre-injury)", "result": "0.2 ± 0.2"}, {"measurement": "Panniculum inflammation", "setting": "IRS (pre-injury)", "result": "0.8 ± 0.1"}, {"measurement": "Ulceration", "setting": "IRS (pre-injury)", "result": "0.0 ± 0.0"}, {"measurement": "Total Disease Score", "setting": "IRS (therapeutic)", "result": "3.5 ± 0.4"}, {"measurement": "Dermal inflammation", "setting": "IRS (therapeutic)", "result": "1.2 ± 0.1"}, {"measurement": "Epidermis thickness", "setting": "IRS (therapeutic)", "result": "1.0 ± 0.2"}, {"measurement": "Intraepithelial inflammation", "setting": "IRS (therapeutic)", "result": "0.2 ± 0.2"}, {"measurement": "Panniculum inflammation", "setting": "IRS (therapeutic)", "result": "1.0 ± 0.0"}, {"measurement": "Ulceration", "setting": "IRS (therapeutic)", "result": "0.2 ± 0.1"}, {"measurement": "lesions, share of the stripped area", "setting": "IRS before skin injury and for the duration, day 15-23", "result": "less than 15%"}, {"measurement": "surface still covered by open lesions", "setting": "IRS beginning at day 4, day 15-23", "result": 10, "unit": "%"}, {"measurement": "CLE-like phenotype / healing of established lesions", "setting": "therapeutic treatment from day 4", "result": "accelerated healing; also recorded: significantly ameliorated CLE-like phenotype"}, {"measurement": "disease onset (skin appearance, histology, gene signatures)", "setting": "treatment from the day of tape stripping", "result": "able to prevent disease onset"}]}]}
